# Results: a melting point compilation (Tetko et al.; mined from patent text by program, amines drawn as free bases though some values may be those of a salt)
row,Compound,melting point [°C]
1,CC(C)S(=O)(=O)c1ccc(S(=O)(=O)C(C)C)nc1,181
2,O=C(O)c1ccc(-c2coc(-c3cccc(C(F)(F)F)c3)n2)cc1,268 to 269
3,C=C1CSC2C(NC(=O)Cc3ccccc3)C(=O)N2C1C(=O)OC(c1ccccc1)c1ccccc1 (centres undefined),144 to 147
4,C=CCOC(=O)c1c(C)nc2c(cnn2CCOCC)c1N,38 to 40
5,O=C(c1ccc(F)cc1)c1ccc(OC(F)(F)F)cc1,42 to 43
6,Nc1ccccc1NC(=O)c1ccc(COC(=O)NCc2cccnc2)cc1,139 to 141
7,CCOCc1nc2c(N)nc3cc(-c4ccccc4)ccc3c2n1CC(C)(C)O,211 to 212
8,COc1ccc(Oc2ccc3ccc(NC(=O)c4ccc(OC)cc4)nc3n2)cc1,163
9,Cc1c(Cl)cc(C(C)(C)C)c(O)c1-c1nc2cc(S(=O)(=O)C(F)(F)F)ccc2[nH]1,174 to 176
10,C=C(C)Cc1c(C)c(NC(C)=O)cc(C)c1O,183 to 185
11,Cc1nc(-c2cn(CCc3ccc(F)cc3)nn2)sc1C(=O)NCc1ccccc1,181 to 182
12,COC(=O)COc1c(C)cc(SCc2sc(-c3ccc(C(F)(F)F)cc3)nc2C)cc1C,104 to 105
13,O=C(NCC(F)(F)F)c1cc(Cl)cc(Cl)c1,145 to 147
14,C[C@H](C(=O)N[C@H](CO)Cc1ccccc1)c1ccc(NS(C)(=O)=O)c(F)c1,150 to 153
15,CC(=O)OCc1c(C(=O)C(=O)O)c2cc(OCc3ccccc3)ccc2n1Cc1ccc(C(C)(C)C)cc1,145 to 146
16,Cc1cc(C(N)=O)ncc1C(c1c(F)ccc(F)c1F)S(=O)(=O)CCC(C)(C)C (centres undefined),143 to 144
17,COc1ccnc(CCc2nc3cc(-c4ccc(S(=O)(=O)NCCO)cc4)cnc3[nH]2)c1,218 to 220
18,CC(=O)NC1(c2ccccc2)CCN(CCC(CN(CCc2ccccc2)CCc2ccccc2)c2ccc(Cl)c(Cl)c2)CC1 (centres undefined),60 to 62
19,N#CNC(=NC1CCN(Cc2ccccc2)CC1)NC1Cc2ccccc2C1,138 to 140
20,Cc1[nH]c(C(=O)N2CCN(c3ccccc3)CC2)c(C)c1-c1nc2ccc(C(=O)c3ccccc3)cc2[nH]1,145 to 147
21,Nc1cccc(C(=O)c2cccc3ccccc23)c1O,211

row,Compound,melting point [°C]
1,O=C(CC1=C(n2nc(-c3c(-c4ccccc4)nn4ccccc34)ccc2=O)CCCC1)N1CCSCC1,180 to 182
2,CC(C)N(CCOc1ccc(NC(=O)c2c[nH]c3c2C(=O)CCC3)cc1)C(C)C,140 to 141
3,COc1ccc(-c2ccc3nnn(Cc4ccc5ncccc5c4)c3n2)cc1OC,149 to 152
4,Cc1cc(C)c2c3ccccc3c(=O)n(CCN(C)C)c2n1,128 to 130
5,COc1ccc(-c2cc3ccc(OC)cc3c(=S)[nH]2)cc1,188 to 190
6,C=C1CCN(S(=O)(=O)c2ccc(Cl)c(C(=O)O)c2)CC1,157 to 160
7,COc1ccc(Cn2nnnc2C(=O)Nc2cccc(N3CCCCC3)c2C#N)cc1,166 to 168
8,"CC(C)Cc1ccc(C2(C)Oc3ccc(C(=O)c4c[nH]c5ccccc45)cc3O2)cc1 (single isomer, unassigned; (-))",155 to 158
9,CC(=O)c1c(O)c(=O)[nH]c2cc(Cl)ccc2c1=O,254 to 256
10,c1ccc2c(c1)SCCc1c-2n(CCCN2CCCCC2)c2ccccc12,84 to 87
11,CCOc1ccc(-n2c(NCc3ccc(Cl)cc3)nc3ccc(Cl)cc32)cc1,135 to 136
12,CC(C)(C)c1noc(-c2ncn3c2[C@@H]2CCCN2C(=O)c2c(Cl)cccc2-3)n1,222 to 224
13,O=c1[nH]c2cc(Cl)cc(OCCNCc3cccs3)c2[nH]1,179 to 180
14,O=[N+]([O-])c1ccc2c(c1)CCN(Cc1ncn[nH]1)C2,163 to 166
15,Cc1ccccc1C=CCC(CCC(=O)O)(C(=O)C=Cc1ccc(Cl)cc1)c1ccccc1 (centres undefined),60 to 80
16,O=C(c1ccccc1)C(c1cccc2ccccc12)P(=O)(O)O (centres undefined),184 to 187
17,CCCNC1Cc2cccc3[nH]c(=O)n(c23)C1 (centres undefined),> 300
18,CC(=O)NCc1cccc(Nc2nccc(-c3sc(NCc4ccccc4)nc3C)n2)c1,181 to 183
19,COc1ccc(-c2cc(N)n[nH]2)cc1OC,124 to 125
20,O=C(O)CC1CCCc2c1n(Cc1ccc(F)cc1)c1c(F)cc(F)cc21 (centres undefined),195 to 196
21,COc1ccc2cc(S(=O)(=O)Cl)cc(OC)c2c1,134

row,Compound,melting point [°C]
1,Cc1ccc2c(Cc3nc4c(F)c(F)cc(F)c4s3)cn(CC(=O)O)c2c1,211 to 213
2,CC(C)c1nc(COCc2ccccc2)n(CCO)c1Sc1cc(Cl)cc(Cl)c1,78 to 80
3,CN(C)C(=O)N1N=C2c3cc(F)ccc3OC[C@@H]2[C@@H]1c1ccccc1 (racemic),117
4,Cn1ncc2c1-c1c(Oc3ncccn3)sc(C(=O)O)c1CC2,256 to 258
5,CCCNC(=O)C(O)C1(O)CCC2C3CCC4=CC(=O)C=CC4(C)C3C(O)CC21C (centres undefined),251 to 253
6,c1ccc(CN(c2ccccc2)c2ccccc2)cc1,86
7,CCOCc1nc2c(N)nc(C)cc2n1CCCCNC(=O)C(C)C,170 to 172
8,COC(=O)C1c2ccccc2C(=O)N(CC(F)(F)F)C1c1cn[nH]c1 (centres undefined),161 to 162
9,NS(=O)(=O)c1ccc(-c2ccc(Cl)n2-c2ccc(Cl)cc2Cl)cc1,186 to 187
10,CC(C)Nc1cncc(C(=NCCO[N+](=O)[O-])NC#N)c1,123
11,Cc1noc(CC(=O)O)n1,95
12,CC(=O)c1cc(NS(C)(=O)=O)ccc1F,120 to 123
13,COc1cc(I)c(C(C)=NOCc2ccc([N+](=O)[O-])cc2)cc1O,121 to 127
14,COC(=O)C(NC(=O)OCc1ccccc1)OC (centres undefined),74 to 75
15,CC(C)(C)CC(C)(C)c1cc(N=Nc2cc(C(=O)O)ccc2Cl)c(O)c(C(C)(C)c2ccccc2)c1,218 to 220
16,CCN1C(=O)CCC(C)(C)c2cc([N+](=O)[O-])ccc21,67
17,CS(=O)(=O)c1ccc(C(CC2CCCC2)C(=O)Nc2cnc(C(C#N)=NO)cn2)cc1Cl (centres undefined),130 to 133
18,CC(=O)OC1CC2(C)C(=O)CCC2C2C(CCCCCCCCCCl)CC3=CC(=O)CCC3C12 (centres undefined),113 to 115
19,O=C(Nc1ccc(Br)c(C(F)(F)F)c1)c1ccccc1[N+](=O)[O-],157 to 158

# More lines, now with the values ahead:
row,melting point [°C],Compound
1,128 to 129,CC(C)(C)OC(=O)NCc1nc(C(=O)NNC(=O)OCc2ccccc2)cc(OCc2ccccc2)c1OCc1ccccc1
2,144 to 146,OC(CN1CCC(O)(Cc2ccccc2)CC1)c1ccc(F)cc1 (centres undefined)
3,172 to 173,COc1ccc(-c2cc(=Nc3c(C)cc(C)cc3C)n(C)c(SC)n2)cc1OC
4,274 to 276,Cn1ncc2c(=O)n3c(nc21)SC(C(=O)O)C3 (centres undefined)
5,219 to 222,CCN1C(=O)Nc2ccc(Cl)cc2C1(C#CC1(C)CC1)C(F)(F)F (centres undefined)
6,196,CCCc1cc(=O)[nH]c(NC(=N)Nc2ccccc2)n1
7,107 to 108,Cc1cccc(Nc2ccccc2C=NO)c1C
8,193 to 195,CN(C)C(=O)c1nc(-c2ccccc2)nc2c1c1ccccc1n2C
9,159 to 161,O=C1C(c2ccccc2)CC=C2c3ccsc3CCN12 (centres undefined)
10,122 to 124,Nc1ncccc1OCc1c(F)cc(F)cc1F
11,93 to 95,CCCCCCc1cccc(-c2cn(C)cc(-c3ccccc3)c2=O)c1
12,160,O=c1[nH]c2ccccc2n1Cc1cccnc1
13,97 to 99,CNCc1cccc2c(=O)c(C)c(-c3ccccc3)oc12
14,133 to 136,CCOC(=O)c1ccc(-c2ccc(-c3ccccc3OC)c(-c3ccc4c(c3)C(C)(C)CCC4(C)C)c2)cc1
15,130,Cc1cc(=O)n(-c2ccc(C(F)(F)F)cc2)[nH]1
16,121 to 123,CC(C)OC1CCCC(C2NC(=O)C2C(C)O[Si](C)(C)C(C)(C)C)C1O (centres undefined)
17,132 to 134,CON(C)Cc1nc2c(N)nc(C)c(C)c2n1CC(C)C
18,49 to 52,Cc1cc(F)cc(C=O)c1O
19,181 to 184,CC(=O)Oc1ccccc1-c1ccc(=O)[nH]n1

row,melting point [°C],Compound
1,95 to 96,CC(=O)C(C)(O)C1(C)OC(C)=CC1=O (centres undefined)
2,96 to 97,Fc1ccc(F)c(CC2CCN([C@H]3CC[C@H](c4ccc5c(c4)OCO5)CC3)CC2)c1
3,205 to 206,COC(=O)C1=C(C)NC(C)=C(c2nc(CCl)ns2)C1c1cccc([N+](=O)[O-])c1 (centres undefined)
4,145 to 150,O=C(CCCN1CCN2c3ccccc3NC(=O)C2C1)c1ccc(F)cc1 (centres undefined)
5,61.5 to 64.4,O=S(=O)(c1ccccc1)c1ccc2c(c1)OCCN2CCN1C=CNC1
6,201 to 203,COCCn1cc(C(=O)O)c2c(C(=O)N3CCOCC3)cccc21
7,106 to 109,O=C(c1ccc(F)cc1)C1CCN(S(=O)(=O)c2ccccc2)CC1
8,80 to 81,COC(=O)CCCc1ccc(S(=O)(=O)Nc2ccc(Cl)cc2)cn1
9,175 to 176,CCN(CC)CCNS(=O)(=O)c1ccc(Nc2cnnc3cc(Cl)ccc23)cc1
10,72 to 74,CC(C)(Br)C(=O)ON1C(=O)CCC1=O
11,199 to 201,Nc1ccc(-c2ccncc2)nn1
12,217 to 218,Cc1cccc(C(=O)Nc2c[nH]nc2C(=O)NCC(C)(C)CO)n1
13,145 to 146,CCCCc1nn(-c2cc([N+](=O)[O-])ccc2C(F)(F)F)c(=O)n1Cc1ccc(-c2ccccc2S(=O)(=O)NC(C)(C)C)cc1F
14,270 to 280,Cc1c(-c2ccccc2)c2c(c3c1[nH]c1ccc(O)cc13)C(=O)NC2=O
15,112 to 114,Cc1noc(NS(=O)(=O)c2ccsc2NC(=O)Nc2sccc2S(=O)(=O)Nc2onc(C)c2C)c1C
16,190 to 192,c1ccc2c(c1)CCN(Cc1c[nH]c3ncccc13)C2
17,174,CCCCCc1ccc(-c2ccc(C(=O)O)cc2)cc1
18,40 to 41,N#CC(NCCc1cccs1)c1ccccc1Cl (centres undefined)
19,139 to 142,COc1ccc(C(CC(C)(C)C(=O)O)c2ccc(Cl)cc2)cc1 (centres undefined)
